In publication PMC11355796, “Blue and Yellow Laccases from Alternaria sp. Strain HU: Characterization and Immobilization on Magnetic Nanoparticles” (Journal of Fungi, 2024):
Counter-ions that a name gives are not always drawn.

Experiments:
[1] = system: T1, LacHU1; assay: initial-rate oxidation assay, Michaelis-Menten fit; assay type: biochemical, Alternaria sp. HU; details: free enzyme; apparent constant; read-out: Kinetic Parameters / KM, μM / LacHU1
T1 construct: native secreted enzyme purified from culture liquid; signal peptide of 18 residues
Excerpt: initial-rate oxidation assay, Michaelis-Menten fit on LacHU1

[2] = system: T2, LacHU2; assay: initial-rate oxidation assay, Michaelis-Menten fit; assay type: biochemical, Alternaria sp. HU; details: free enzyme; apparent constant; read-out: Kinetic Parameters / KM, μM / LacHU2
T2 construct: native secreted enzyme purified from culture liquid; signal peptide of 18 residues
Excerpt: initial-rate oxidation assay, Michaelis-Menten fit on LacHU2

Structure (SMILES) | Km [1] | Km [2]
O=c1c(O)c(-c2ccc(O)c(O)c2)oc2cc(O)cc(O)c12 [Quercetin] | 2 ± 0.4 µM | 
OCCN1c2ccccc2Oc2ccccc21 [2-(10H-phenoxazin-10-yl)ethanol] | 40 ± 10 µM | 200 ± 50 µM
COc1cc(/C=C/C(=O)O)ccc1O [Ferulic acid] | 50 ± 4 µM | 230 ± 30 µM
Oc1ccccc1O [Catechol] |  | 20000 µM
COc1cc(C=NN=Cc2cc(OC)c(O)c(OC)c2)cc(OC)c1O [Syringaldazine] | 1 ± 0.1 µM | 
O=C(O)/C=C/c1ccc(O)c(O)c1 [Caffeic acid] | 50 ± 3 µM | 400 ± 30 µM
Oc1ccc(O)cc1 [Hydroquinone] |  | 13000 µM
O=c1c(O)c(-c2cc(O)c(O)c(O)c2)oc2cc(O)cc(O)c12 [Myricetin] | 2 ± 0.3 µM | 
CN(C)CCCN1c2ccccc2Sc2ccccc21 [Promazine hydrochloride] |  | 2600 µM
O=c1c(O)c(-c2ccc(O)c(O)c2)oc2cc(O)ccc12 [Fisetin] | 15 ± 1 µM | 
Nc1ccc(N)cc1 [p-Phenylenediamine] |  | 3600 µM
COc1cc(C(=O)O)cc(OC)c1O [Syringic acid] | 40 ± 0.5 µM | 
CCn1c(=NN=c2sc3cc(S(=O)(=O)O)ccc3n2CC)sc2cc(S(=O)(=O)O)ccc21 [ABTS, 2,2’-azino-bis(3-ethylbenzothiazoline-6-sulfonic acid) diammonium salt] | 60 ± 10 µM | 5600 µM
O=C(/C=C/c1ccc(O)c(O)c1)O[C@@H]1C[C@](O)(C(=O)O)C[C@@H](O)[C@H]1O [Chlorogenic acid] |  | 90 ± 40 µM
COc1cccc(OC)c1O [2,6-DMP] | 10 ± 2 µM | 4300 µM
